We go through five compounds from PMC6272861, “In Vitro Inhibition of Human UDP-Glucuronosyl-Transferase (UGT) Isoforms by Astaxanthin, β-Cryptoxanthin, Canthaxanthin, Lutein, and Zeaxanthin: Prediction of in Vivo Dietary Supplement-Drug Interactions” (Molecules, 2016).

In one data set the target is T1, UGT1A3 (Homo sapiens, UniProt P35503).
T1 sequence (P35503 29-534): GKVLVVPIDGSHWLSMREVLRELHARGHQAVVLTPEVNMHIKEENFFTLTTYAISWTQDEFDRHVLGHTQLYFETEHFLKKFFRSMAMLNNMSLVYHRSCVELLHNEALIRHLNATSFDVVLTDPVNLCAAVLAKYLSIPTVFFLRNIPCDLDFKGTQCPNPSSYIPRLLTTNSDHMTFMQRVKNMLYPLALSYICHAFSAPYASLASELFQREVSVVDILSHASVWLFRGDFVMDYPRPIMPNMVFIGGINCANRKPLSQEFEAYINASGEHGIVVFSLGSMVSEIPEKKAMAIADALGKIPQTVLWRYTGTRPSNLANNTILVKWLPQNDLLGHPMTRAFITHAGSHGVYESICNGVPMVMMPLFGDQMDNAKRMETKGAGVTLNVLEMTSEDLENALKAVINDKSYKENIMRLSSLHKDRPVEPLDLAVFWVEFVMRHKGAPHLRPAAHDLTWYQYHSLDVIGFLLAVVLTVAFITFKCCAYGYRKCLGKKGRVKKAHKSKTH
Description: Inhibition of UGT1A3 (chenodeoxycholic acid 24-acyl-β-D-glucuronidation) in human liver microsomes. The settings on record: for Residual UGT1A3 enzyme activity: highest tested concentration 50 μM. (Microsomes from liver hold many membrane-bound enzymes, among them those of drug oxidation.)

A further data set concerns the target T2, UGT1A6 (Homo sapiens, UniProt P19224).
T2 construct: pooled human liver microsomes (final concentration 0.25 mg/mL); tissue Corning Life Sciences; host or cells: pooled human liver microsomes, 150 donors
T2 sequence (P19224 27-532): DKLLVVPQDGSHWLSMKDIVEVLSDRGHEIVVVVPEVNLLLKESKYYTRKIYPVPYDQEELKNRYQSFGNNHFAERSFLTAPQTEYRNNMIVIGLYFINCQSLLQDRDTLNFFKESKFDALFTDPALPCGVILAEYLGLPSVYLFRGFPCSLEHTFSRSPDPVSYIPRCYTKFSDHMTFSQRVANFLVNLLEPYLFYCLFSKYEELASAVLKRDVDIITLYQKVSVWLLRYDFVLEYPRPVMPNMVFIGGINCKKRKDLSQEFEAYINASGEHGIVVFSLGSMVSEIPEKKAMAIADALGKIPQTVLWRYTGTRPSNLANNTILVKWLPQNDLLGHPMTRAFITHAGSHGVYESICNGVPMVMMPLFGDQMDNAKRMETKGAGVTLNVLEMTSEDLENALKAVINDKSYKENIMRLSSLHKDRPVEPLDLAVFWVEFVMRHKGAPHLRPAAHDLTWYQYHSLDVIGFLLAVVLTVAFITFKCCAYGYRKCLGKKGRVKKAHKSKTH
Nature of the data set: Inhibition of UGT1A6 (serotonin-O-glucuronidation) in human liver microsomes. Format: in vitro ADME. The settings on record: for IC50: 4000 μM serotonin, mean ± SD of triplicate, read-out: IC50 towards UGT1A6; for Residual UGT1A6 enzyme activity: highest tested concentration 50 μM.

A further data set concerns the target T3, UGT1A9 (Homo sapiens, UniProt O60656).
T3 sequence (O60656 26-530): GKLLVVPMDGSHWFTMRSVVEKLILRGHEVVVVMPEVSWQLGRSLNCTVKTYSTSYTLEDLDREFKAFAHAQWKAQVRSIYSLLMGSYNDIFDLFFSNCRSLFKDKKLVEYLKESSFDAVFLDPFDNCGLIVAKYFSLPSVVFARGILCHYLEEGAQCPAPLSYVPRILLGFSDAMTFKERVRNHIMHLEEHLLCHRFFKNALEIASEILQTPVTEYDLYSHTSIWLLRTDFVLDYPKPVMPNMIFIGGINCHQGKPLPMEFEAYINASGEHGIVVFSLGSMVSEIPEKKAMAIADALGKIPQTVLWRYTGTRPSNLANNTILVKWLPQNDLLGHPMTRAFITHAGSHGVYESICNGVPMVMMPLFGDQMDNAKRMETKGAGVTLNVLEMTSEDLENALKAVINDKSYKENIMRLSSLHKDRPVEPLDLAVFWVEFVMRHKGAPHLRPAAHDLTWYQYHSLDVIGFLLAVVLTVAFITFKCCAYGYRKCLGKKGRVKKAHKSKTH
Nature of the data set: Inhibition of UGT1A9 (propofol-O-glucuronidation) in human liver microsomes. The following applies: for Residual UGT1A9 enzyme activity: highest tested concentration 50 μM.

Data set [1] deals with T4, UGT1A1 (Homo sapiens, UniProt P22309).
T4 sequence (P22309 26-533): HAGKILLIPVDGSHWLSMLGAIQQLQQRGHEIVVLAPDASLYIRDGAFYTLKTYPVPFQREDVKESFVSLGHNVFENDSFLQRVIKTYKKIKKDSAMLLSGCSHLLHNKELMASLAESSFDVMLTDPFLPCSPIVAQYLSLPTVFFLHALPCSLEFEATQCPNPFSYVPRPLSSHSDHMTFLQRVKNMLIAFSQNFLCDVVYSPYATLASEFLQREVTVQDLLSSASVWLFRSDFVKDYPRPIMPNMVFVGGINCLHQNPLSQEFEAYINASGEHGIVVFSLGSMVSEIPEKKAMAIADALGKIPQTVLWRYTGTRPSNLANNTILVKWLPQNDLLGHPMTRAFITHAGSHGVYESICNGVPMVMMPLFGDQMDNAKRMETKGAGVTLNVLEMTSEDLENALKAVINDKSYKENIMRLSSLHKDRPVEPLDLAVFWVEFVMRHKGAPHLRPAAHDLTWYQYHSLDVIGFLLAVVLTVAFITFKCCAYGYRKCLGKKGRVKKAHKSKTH
Nature of the data set: Ki determination on UGT1A1 activity (β-estradiol-3-glucuronidation) in human liver microsomes. As for the experimental part:
Based on the lowest IC50 value, the inhibitor constant (Ki) values of the βC for UGT1A1 were determined. […] All incubations were performed in triplicate, and the mean values were used for the analysis. Other procedures were similar to those of the reversible inhibition studies.
For visual inspection, data were presented as Dixon plots.

Data set [2] has as its target T4, UGT1A1. Nature of the data set: Prediction of in vivo drug interaction via UGT1A1 inhibition (AUCi/AUC = 1 + [I]in vivo/Ki). Also on record: pooled human liver microsomes (final concentration 0.25 mg/mL); tissue Corning Life Sciences; host or cells: pooled human liver microsomes, 150 donors. An excerpt:
As far as we know, for reversible inhibitors, the magnitude of the drug-drug interaction is affected by both the in vitro inhibition constant (Ki) and the in vivo inhibitor concentration. […] In this study, the maximum plasma concentration (Cmax) of βC was used as the [I]in vivo value, and the fraction metabolized by the UGT1A1 of the co-administrated drug was supposed to be 1.

On the set-up of data set [3]: method as in PMID 13129448. The settings on record: healthy subjects, single-dose carotenoid supplement containing 1.3 mg of esterified βC, oral; read-out: mean Cmax (maximum plasma concentration); cited from earlier work.
The mark [4] stands for this setting: read-out: IC50 towards UGT1A3, human liver microsomes, 15 μM chenodeoxycholic acid, mean ± SD of triplicate.
Setting [5] is: read-out: IC50 towards UGT1A9, human liver microsomes, 100 μM propofol, mean ± SD of triplicate.

Structures are written as SMILES. Like-named read-outs stand apart in the source and are kept apart here.

Description for UGT1A3: (§1) The formation activities of β-estradiol-3-glucuronide, chenodeoxycholic acid 24-acyl-β-D-glucuronide, trifluoperazine-N-glucuronide, imipramine-N-β-D-glucuronide, serotonin-O-glucuronide, propofol-O-glucuronide, and zidovudine-5′-glucuronide were determined to probe the activities of UGT1A1, UGT1A3, UGT1A4, UGT1A6, UGT1A9 and UGT2B7, respectively, in human liver microsomes.
(§2) In brief, the 90-µL incubation mixture, including pooled human liver microsomes (final concentration 0.25 mg/mL), 100 mM Tris buffer, 25 µg/mL alamethicin, 5 mM MgCl2, the UGT-selective substrates, and five xanthophylls (0–50 μM), were pre-incubated for 30 min on ice to allow formation of alamethicin pores. Reac2345tions were initiated by the addition of 10 μL of UDPGA (5 mM) to a final reaction volume of 0.1 mL and incubated at 37 °C for 60 min (except 30 min for UGT1A9) in a shaking water bath. After incubation, each reaction was stopped by adding 50 μL of ice-cold acetonitrile containing chlorpropamide (300 ng/mL) or theophylline (30 μg/mL or 300 μg/mL) as an internal standard. The mixtures were then centrifuged (13,000 g for 15 min at 4 °C) and 5-µL aliquots of the supernatants were injected into an LC-MS/MS system. […] All incubations were performed in triplicate, and mean values were used for analysis.
(§3) Chromatographic separations were performed on an Agilent Poroshell 120 EC-C18 column (50 mm × 4.6-mm i.d.; 2.7-μm particle size; Agilent Technologies) to quantify β-estradiol-3-glucuronide (UGT1A1), chenodeoxycholic acid 24-acyl-β-D-glucuronide (UGT1A3), trifluoperazine-N-glucuronide (UGT1A4), propofol-O-glucuronide (UGT1A9), zidovudine-5′-glucuronide (UGT2B7), and 4-methylumbelliferyl glucuronide (UGT2B15); an Agilent Poroshell 120 EC-C18 column (100 × 4.6-mm i.d.; 2.7-mm particle size) was used for quantification of serotonin-O-glucuronide (UGT1A6). The isocratic mobile phase consisted of distilled water (A) and acetonitrile containing 0.1% formic acid (B) at a ratio (v/v) of 10:90 for chenodeoxycholic acid 24-acyl-β-D-glucuronide, 30:70 for trifluoperazine-N-glucuronide and zidovudine-5′-glucuronide, 50:50 for propofol-O-glucuronide and 4-methylumbelliferyl glucuronide, 65:35 for β-estradiol-3-glucuronide, and 90:10 for serotonin-O-glucuronide, at a flow rate of 0.5 mL/min. The total run time was 4.0 min per sample for each metabolite, with the exception of serotonin-O-glucuronide (6.0 min). Peak areas for all of the analytes were automatically integrated using Analyst software (version 1.5.2, Applied Biosystems, Foster City, CA, USA).
(§4) The IC50 values were calculated via nonlinear least-squares regression analysis from plots of the logarithms of inhibitor concentration vs. the residual percentages of activities after inhibition, using WinNonlin (ver. 4.0; Pharsight, Mountain View, CA, USA).
Description for UGT1A6: as §1, §2
The IC50 values were calculated via nonlinear least-squares regression analysis from plots of the logarithms of inhibitor concentration vs. the residual percentages of activities after inhibition, using WinNonlin (ver. 4.0; Pharsight, Mountain View, CA, USA). The apparent inhibitory constants (the Ki values) were estimated from fitted curves using the WinNonlin software. Inhibition data were fitted to different models of enzyme inhibition (competitive, non-competitive, uncompetitive, or mixed) using nonlinear least-squares regression analysis (WinNonlin software). The most appropriate inhibition model was selected based on goodness-of-fit criteria determined via visual inspection, by calculating correlations of determination (R^2 values), and using the corrected Akaike′s Information Criterion. For visual inspection, data were presented as Dixon plots.
Description for UGT1A9: as §1, §2, §3, §4

On to `CC1=C(/C=C/C(C)=C/C=C/C(C)=C/C=C/C=C(C)/C=C/C=C(C)/C=C/C2=C(C)C(=O)[C@@H](O)CC2(C)C)C(C)(C)C[C@H](O)C1=O` [AS, astaxanthin], for which the IC50 against UGT1A3, at UGT1A6 and against UGT1A9 was greater than 50 µM in each case. The “Residual UGT1A3 enzyme activity” value at UGT1A3 (human liver microsomes) was “greater than 80%”. Also, at UGT1A6, the “Residual UGT1A6 enzyme activity” value is given as “greater than 80%”. Besides, the “Residual UGT1A9 enzyme activity” value on UGT1A9 (human liver microsomes) is reported as “greater than 80%”.
For the compound `CC1=C(/C=C/C(C)=C/C=C/C(C)=C/C=C/C=C(C)/C=C/C=C(C)/C=C/C2=C(C)C[C@@H](O)CC2(C)C)C(C)(C)C[C@H](O)C1` [ZE, zeaxanthin], the IC50 against UGT1A3, on UGT1A6 and at UGT1A9 was greater than 50 µM each time. The “Residual UGT1A3 enzyme activity” value at UGT1A3 (human liver microsomes) is 64.2%. Also, the “Residual UGT1A6 enzyme activity” value at UGT1A6 is “greater than 80%”. At UGT1A9 (human liver microsomes), the “Residual UGT1A9 enzyme activity” value was “greater than 80%”.
In the case of `CC1=C(/C=C/C(C)=C/C=C/C(C)=C/C=C/C=C(C)/C=C/C=C(C)/C=C/C2=C(C)C(=O)CCC2(C)C)C(C)(C)CCC1=O` [CA, canthaxanthin], the figures for the 50% inhibitory concentration (IC50) on UGT1A3 (setting [4]), on UGT1A6 and at UGT1A9 (setting [5]) were 41.2 ± 3.14 µM, greater than 50 µM and greater than 50 µM, respectively.
Take `CC1=C(/C=C/C(C)=C/C=C/C(C)=C/C=C/C=C(C)/C=C/C=C(C)/C=C/C2=C(C)C[C@@H](O)CC2(C)C)C(C)(C)CCC1` [βC, β-cryptoxanthin]: at UGT1A1 [1] (Dixon plots / nonlinear regression), the “Mode of inhibition of UGT1A1” value is reported as “competitive inhibition”. In addition, the inhibition constant (Ki) on UGT1A1 [1] (read-out: Ki against UGT1A1-catalyzed β-estradiol-3-glucuronidation, β-estradiol 5, 10 and 20 μM, nonlinear regression) turned out to be 12.2 ± 0.985 µM. Besides, the results for the half-maximal inhibitory concentration (IC50) at UGT1A3 (setting [4]), on UGT1A6 and at UGT1A9 (setting [5]) were 28.3 ± 4.4 µM, greater than 50 µM and greater than 50 µM, respectively. Also, the “AUCi/AUC ratio for UGT1A1” value on UGT1A1 [2] (calculated from Cmax 0.15 μM and Ki, fraction metabolized by UGT1A1 supposed to be 1) is 1.012. The “Predicted increase of AUC of co-administered drug” value on UGT1A1 [2] (drugs that undergo 100% UGT1A1-mediated elimination) was 1.2%. Further, in data set [3], the Cmax is roughly 150 nM.
In the case of `CC1=C[C@H](O)CC(C)(C)[C@H]1/C=C/C(C)=C/C=C/C(C)=C/C=C/C=C(C)/C=C/C=C(C)/C=C/C1=C(C)C[C@@H](O)CC1(C)C` [LU, lutein], the IC50 on UGT1A3, on UGT1A6 and at UGT1A9 was greater than 50 µM throughout.

The IC50 is the midpoint of a concentration-inhibition curve. As a reminder, the Ki is the dissociation constant of the complex between target and ligand, obtained from inhibition or displacement.
